Laboratory results published in US20080153700A1, “Fungicidal Mixtures” (Basf Aktiengesellschaft, priority 2004, published 2008).

System: Plasmopara viticola
Experiment: activity against peronospora of grapevines caused by Plasmopara viticola (protective spray on potted vines)
Type: in vivo, Plasmopara viticola on vines of the cultivar "Riesling"
Settings: individual active compound, untreated control 88% infection
Description: The active compounds, separately or jointly, were prepared as a stock solution comprising 0.25% by weight of active compound in acetone or DMSO. 1% by weight of the emulsifier Uniperol® EL (wetting agent having emulsifying and dispersant action based on ethoxylated alkylphenols) was added to this solution, and the mixture was diluted with water to the desired concentration.
Use example—activity against peronospora of grapevines caused by Plasmopara viticola
Leaves of potted vines of the cultivar “Riesling” were sprayed to runoff point with an aqueous suspension having the concentration of active compound stated below. The next day, the undersides of the leaves were inoculated with an aqueous zoospore suspension of Plasmopara viticola. The grapevines were then initially placed in a water-vapor-saturated chamber at 24° C. for 48 hours and then in a greenhouse at 20-30° C. for 5 days. After this period of time, the plants were again placed in a humid chamber for 16 hours to promote sporangiophore eruption. The extent of the development of the disease on the undersides of the leaves was then determined visually.
The visually determined percentages of infected leaf areas were converted into efficacies in % of the untreated control:
The efficacy (E) is calculated as follows using Abbot's formula: […]
α corresponds to the fungicidal infection of the treated plants in % and β corresponds to the fungicidal infection of the untreated (control) plants in %
An efficacy of 0 means that the infection level of the treated plants corresponds to that of the untreated control plants; an efficacy of 100 means that the treated plants were not infected.
The expected efficacies of mixtures of active compounds were determined using Colby's formula (Colby, S. R. “Calculating synergistic and antagonistic responses of herbicide combinations”, Weeds, 15, 20-22, 1967) and compared with the observed efficacies.
E expected efficacy, expressed in % of the untreated control, when using the mixture of the active compounds A and B at the concentrations a and b x efficacy, expressed in % of the untreated control, when using the active compound A at the concentration a y efficacy, expressed in % of the untreated control, when using the active compound B at the concentration b

CC1CCN(c2c(-c3c(F)cc(F)cc3F)c(Cl)nc3ncnn23)CC1 [compound I, 5-chloro-7-(4-methylpiperidin-1-yl)-6-(2,4,6-trifluorophenyl)[1,2,4]triazolo[1,5-a]pyrimidine]
Efficacy in % of the untreated control (16 ppm in the spray liquor): 55%
Efficacy in % of the untreated control (63 ppm in the spray liquor): 66%

Cc1ccc(N(SC(F)(Cl)Cl)S(=O)(=O)N(C)C)cc1 [compound II, N-dichlorofluoromethylthio-N′,N′-dimethyl-N-p-tolylsulfamide]
Efficacy in % of the untreated control (16 ppm in the spray liquor): 0%
Efficacy in % of the untreated control (63 ppm in the spray liquor): 21%
